The values that follow come from patent US20070037752A1, “Novel alanyl-amino peptidase inhibitors for functionally influencing different cells and treating immunological, inflammatory, neuronal, and other diseases” (priority 2003, published 2007).

For this test, the target named is alanyl aminopeptidases (APN) (Homo sapiens, UniProt P15144). The experiment in a line: Inhibition of alanyl aminopeptidase enzymatic activity, fluorogenic substrate (Ala)2-rhodamine 110. The test is classed as biochemical. Here is the method: The inhibition characteristics measured are referred to as IC-50 values or ID50 values (the latter marked with “*”) for said enzyme. The enzymatic activity was determined by means of the fluorogenic substrate/product (Ala)2-rhodamine 110.

[1] abbreviates: Table 4, unstarred values, read-out: IC50APN.
The mark [2] stands for this setting: Table 3, unstarred values, read-out: IC50APN.
Setting [3] is: Table 4, starred values = ID50, read-out: ID50 APN (values marked with *).
Setting [4] is: Table 3, starred values = ID50, read-out: ID50 APN (values marked with *).
The mark [5] stands for this setting: Table 9, unstarred values, read-out: IC50APN.

Molecules are shown by their SMILES. Like-named read-outs stand apart in the source and are kept apart here.

Chain of alanyl aminopeptidases (APN) (P15144 whole entry, species assumed): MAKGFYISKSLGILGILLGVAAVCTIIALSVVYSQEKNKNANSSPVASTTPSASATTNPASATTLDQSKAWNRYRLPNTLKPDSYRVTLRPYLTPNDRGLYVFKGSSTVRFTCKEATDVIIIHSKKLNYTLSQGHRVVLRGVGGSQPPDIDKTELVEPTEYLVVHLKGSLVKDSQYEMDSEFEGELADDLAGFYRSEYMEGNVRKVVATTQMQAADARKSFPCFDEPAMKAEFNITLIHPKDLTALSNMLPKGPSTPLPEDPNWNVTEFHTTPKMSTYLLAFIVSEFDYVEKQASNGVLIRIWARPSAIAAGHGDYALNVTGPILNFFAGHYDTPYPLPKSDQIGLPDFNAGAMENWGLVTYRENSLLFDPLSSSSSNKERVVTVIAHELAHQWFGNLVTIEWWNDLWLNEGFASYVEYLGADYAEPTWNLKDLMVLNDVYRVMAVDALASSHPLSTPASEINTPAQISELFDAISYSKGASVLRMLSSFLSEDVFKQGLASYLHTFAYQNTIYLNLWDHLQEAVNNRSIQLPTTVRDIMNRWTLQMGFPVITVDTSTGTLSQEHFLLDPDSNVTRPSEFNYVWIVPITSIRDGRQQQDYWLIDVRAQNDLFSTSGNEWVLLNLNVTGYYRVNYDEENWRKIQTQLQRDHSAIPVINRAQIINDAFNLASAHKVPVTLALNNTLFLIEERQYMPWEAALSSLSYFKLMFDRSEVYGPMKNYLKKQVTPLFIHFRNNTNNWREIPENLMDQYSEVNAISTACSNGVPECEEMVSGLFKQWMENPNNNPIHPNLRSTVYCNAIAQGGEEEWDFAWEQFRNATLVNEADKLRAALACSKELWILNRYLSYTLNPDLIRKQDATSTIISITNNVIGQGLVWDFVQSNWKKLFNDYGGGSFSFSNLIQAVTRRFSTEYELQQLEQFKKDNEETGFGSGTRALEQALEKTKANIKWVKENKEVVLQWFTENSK

With `O=C(N/C=C1/C(=O)Nc2ccc(F)cc21)/C(=C/c1ccccc1)NC(=O)c1ccccc1` [A4.130], the IC50 under setting [1] was determined as 44.2 µM.

For the molecule `O=C(N/N=C/c1ccco1)c1ccccc1` [A3.227], under setting [2], the IC50 is 37.7 µM.

For `CC(=O)Nc1cccc(C(=O)N/N=C/c2ccc(C)o2)c1` [A4.154], the IC50 under setting [3] amounted to 63.1 µM.

For the molecule `COc1ccc(Cl)cc1NC(O)CCN1C(=O)C2C3C=CC(C3)C2C1O` (centres unmarked) [A12.026], the IC50 (Table 12, read-out: IC50APN) is 13.4 µM.

Take `Cn1c(=O)[nH]c2nnc(-c3cccs3)nc2c1=O` [A8.023]: the IC50 (Table 8, unstarred values, read-out: IC50APN) turned out to be 22.6 µM.

Consider `COCc1c(C(=O)N/N=C/c2ccc(C)o2)nnn1-c1nonc1N` [A3.053], for which the IC50 under setting [2] was 12.5 µM.

Regarding `O=C(OCC1CCCO1)c1cc([N+](=O)[O-])cc([N+](=O)[O-])c1` (centres unmarked) [A11.028], where the note is “Table 11, read-out: IC50APN”, the IC50 was determined as 39.3 µM.

`COC(=O)C1=C(N)N2C(=O)CSC2=C(C(=O)OC(C)C)C1` [A14.002]: the IC50 (Table 14, read-out: IC50APN) worked out at 5.9 µM.

As for `O=C(N/N=C/c1ccco1)c1cc(-c2ccccc2Cl)n[nH]1` [A3.303], under setting [4], the IC50 was 75.8 µM.

As for `Cc1ccc(/C=N/NC(=O)COc2ccccc2C)o1` [A4.061], the IC50 under setting [1] turned out to be 22.2 µM.

For `O=C(O)CC1S/C(=N/N=C/c2ccco2)NC1=O` (centres unmarked) [A4.138], the IC50 under setting [3] worked out at 48.1 µM.

For the molecule `O=C(Nc1cccc(/N=C/c2cc(I)cc(I)c2O)c1)c1ccco1` [A3.009], under setting [2], the IC50 was found to be 3 µM.

As for `CC1CCc2c(sc(NC(=O)C(C(F)(F)F)C(F)(F)F)c2C#N)C1` (centres unmarked) [A13.022], for the setting “Table 13, read-out: IC50APN”, the IC50 was 51.3 µM.

For `Cc1ccccc1S(=O)(=O)Nc1cccc(C(=O)N/N=C/c2ccco2)c1` [A6.009], the IC50 (Table 6, read-out: IC50APN) worked out at 19.2 µM.

Consider `CCOc1ccc(C(=O)N/N=C(/C)c2ccco2)cc1` [A3.352], for which the IC50 under setting [4] was 451 µM.

Consider `COc1ccc(C2NCCS2)cc1` (centres unmarked) [A3.035], for which the IC50 under setting [2] worked out at 9.5 µM.

Consider `CCOC(=O)C1CCN(C(=O)/C(=C/c2ccco2)NC(=O)c2ccc(C)c(C)c2)CC1` [A3.209], for which, under setting [2], the IC50 is 34.5 µM.

Take `Cc1ccc(S(=O)(=O)N2CCC(C(=O)N/N=C/c3ccco3)CC2)cc1` [A3.298]: the IC50 under setting [2] worked out at 69.3 µM.

Regarding `CCCOC(=O)c1cc(-c2ccc(/C=C3\C(=O)NC(=O)C(C#N)=C3C)o2)ccc1Cl` [A13.016], the IC50 (Table 13, read-out: IC50APN) was 36.8 µM.

As to `C=CCOC(=O)c1cc(-c2ccc(/C=C3/C(=O)N(CCCO)C(=O)C(C#N)=C3C)o2)ccc1Cl` [A9.040], under setting [5], the IC50 worked out at 18.1 µM.

On to `O=C(/C=C/c1ccco1)c1ccccc1` [A3.166], for which, under setting [2], the IC50 worked out at 27.3 µM.

Take `CCCOC(=O)c1cc(-c2ccc(/C=C3\C(=O)N(CCO)C(=O)C(C#N)=C3C)o2)ccc1Cl` [A9.101]: the IC50 under setting [5] was 54 µM.

Turning to `CC1=C(C#N)C(O)=NC(=O)/C1=C/c1ccc(-c2ccc(Cl)c(C(=O)OC(C)C)c2)o1` [A13.012], the IC50 (Table 13, read-out: IC50APN) was determined as 21.4 µM.

For the molecule `O=C(N/N=C/c1ccco1)c1cccc(NC(=O)c2cccc(Br)c2)c1` [A3.131], the IC50 under setting [2] was 22.4 µM.

With `O=C(CN1C(=O)C2C3C=CC(C3)C2C1=O)Nc1ccc(C(F)(F)F)cc1` (centres unmarked) [A3.337], the IC50 under setting [4] was determined as 223 µM.

In the case of `CCOC(=O)c1cc(-c2ccc(/C=C3/C(=O)NC(=O)C(C#N)=C3C)o2)ccc1Cl` [A9.099], the IC50 under setting [5] is 52.1 µM.

`COc1ccccc1C(=O)N/N=C/c1ccco1` [A3.243]: under setting [2], the IC50 was found to be 44.7 µM.

Consider `CCc1cccc(CC)c1NC(=S)N/N=C1\C(=O)N(CN2CC(C)CC(C)C2)c2ccccc21` (centres unmarked) [A7.002], for which, for the setting “Table 7, read-out: IC50APN”, the IC50 was found to be 6.7 µM.

For `O=C(N/N=C/C=C\c1ccco1)c1ccco1` [A4.036], the IC50 under setting [1] came to 16 µM.

As to `COc1ccc(OC)c(-c2cc(C(=O)N/N=C/c3ccco3)[nH]n2)c1` [A4.127], the IC50 under setting [1] is 43.2 µM.

On to `Cc1ccc(S(=O)(=O)N2CCC(C(=O)N/N=C/c3ccco3)CC2)cc1` [A9.110], for which, under setting [5], the IC50 amounted to 69.3 µM.

Turning to `Cc1ccc(Cn2c(SCCC(=O)O)nc3c2c(=O)n(C)c(=O)n3C)cc1` [A3.170], under setting [2], the IC50 is 28 µM.

Consider `CSCCC(Nc1ncnc2c1oc1ccccc12)C(=O)O` (centres unmarked) [A12.060], for which, under “Table 12, read-out: IC50APN”, the IC50 is 48.4 µM.

As for `COC(=O)c1cccc(-c2ccc(/C=C3\C(=O)N(CCO)C(=O)C(C#N)=C3C)o2)c1` [A13.004], the IC50 (Table 13, read-out: IC50APN) amounted to 6.3 µM.

As for `CC1SC(N/N=C/c2ccco2)=NC1=O` (centres unmarked) [A4.089], the IC50 under setting [1] turned out to be 27.7 µM.
